Assay results reported in patent US6800651B2 (Eli Lilly and Company, priority 2000, dated 2004).
Where two headings read alike, the source gives them in different places. Marks after values point to notes of the source that are not given here.

How the values were obtained:
[1] = system: Harlan Sprague-Dawley rats; assay: Animal model of dural protein extravasation (trigeminal ganglion stimulation); type: in vivo; conditions: rat, ratio stimulated/unstimulated side of dura
Method: Harlan Sprague-Dawley rats (250-350 g) were anesthetized with sodium pentobarbital intraperitoneally (65 mg/kg) and placed in a stereotaxic frame (David Kopf Instruments) with the incisor bar set at −3.5 mm. Following a midline sagital scalp incision, two pairs of bilateral holes were drilled through the skull (6 mm posterially, 2.0 and 4.0 mm laterally, all coordinates referenced to bregma). Pairs of stainless steel stimulating electrodes, insulated except at the tips (Rhodes Medical Systems, Inc.), were lowered through the holes in both hemispheres to a depth of 9 mm. The femoral vein was exposed and a dose of the test compound was injected intravenously (i.v.) at a dosing volume of 1 ml/kg or, in the alternative, test compound was administered orally (p.o.) via gavage at a volume of 2 ml/kg. Approximately 8 minutes post i.v. injection, a 50 mg/kg dose of Evans Blue, a fluorescent dye, was also injected intravenously. The Evans Blue complexed with proteins in the blood and functioned as a marker for protein extravasation. […] Fifteen minutes following stimulation, the animals were killed and exsanguinated with 40 mL of saline. The top of the skull was removed to facilitate the collection of the dural membranes. The membrane samples were removed from both hemispheres, rinsed with water, and spread flat on microscopic slides. […] A fluorescence microscope (Zeiss) equipped with a grating monochromator and a spectrophotometer was used to quantify the amount of Evans Blue dye in each sample. An excitation wavelength of approximately 535 nm was utilized and the emission intensity at 600 nm was determined. The microscope was equipped with a motorized stage and also interfaced with a personal computer. This facilitated the computer-controlled movement of the stage with fluorescence measurements at 25 points ([…]) on each dural sample. The mean and standard deviation of the measurements were determined by the computer. The extravasation induced by the electrical stimulation of the trigeminal ganglion was an ipsilateral effect (i.e. occurs only on the side of the dura in which the trigeminal ganglion was stimulated). This allows the other (unstimulated) half of the dura to be used as a control. The ratio of the amount of extravasation in the dura from the stimulated side, over the amount of extravasation in the unstimulated side, was calculated.

Male Sprague-Dawley rats = assay: Fear potentiated startle paradigm; type: in vivo; conditions: rat
Method: Male Sprague-Dawley rats weighing 325-400 g were purchased from Harlan Sprague-Dawley, Inc. (Cumberland, Ind.) and given a one week acclimation period before testing. Rats were individually housed with food and water ad libitum in an animal room on a 12-hour light/dark cycle with lights on between 6:00 A.M. and 6:00 P.M. […] Control rats were given the respective vehicle. The fear potentiated startle paradigm is conducted over three consecutive days. All three days begin with a 5-minute adaptation period before the trial starts. On day one (baseline startle) after the adaptation period, the animal receives 30 trials of 120 dB auditory noise. The mean startle amplitude (Vmax) is used to assign animals to groups with similar means before conditioning begins. Day two consists of conditioning the animals. Each animal receives 0.5 mA of shock for 500 msec preceded by a 5 second presentation of light which remains on for the duration of the shock. Ten presentations of the light and shock are administered. Day three is the testing trial where drug administration occurs prior to testing. Twenty-four hours after conditioning, startle testing sessions are conducted. Ten trials of acoustic startle (120 dB), non-light paired, are presented at the beginning of the session. This is followed by 20 random trials of the noise alone and 20 random trials of noise preceded by light. […] Data is presented as the difference between light+noise and noise-alone. Differences in startle response amplitudes were analyzed by JMP statistical software using a One-way Anova (analysis of variance, t-test). Group differences were considered to be significant at p<0.05. In the experiment shown below the compound of Example 16 was given i.p. 30 minutes prior to testing.

mGlu2 receptor [2] = target: T1, mGlu2 receptor (Homo sapiens, UniProt Q14416); assay: Potentiation of glutamate-induced increase in intracellular calcium with a mGluR2 expressing cell line (FLIPR); type: cell-based; parameters: expressed in transfected cells; host or cells: RGT cells (co-transfected with GLAST), stably transfected with Galpha15; conditions: read-out: % Maximal Response (mean ± SD, n=2)
Method: Potentiation of Glutamate-Induced Increase in Intracellular Calcium with a mGluR2 Expressing Cell Line.
Cell lines expressing human mGlu2 receptors were derived as previously described (Desai, Burnett, Mayne, Schoepp, Mol. Pharmacol. 48, 648-657, 1995) and cultured in DMEM with 5% dialyzed fetal bovine serum, 1 mM glutamine, 1 mM sodium pyruvate, 50 μg/ml Geneticin G418, and 0.2 mg/ml hygromycin B. Confluent cultures were passaged weekly. […] The RGT cell line expressing the mGluR2 receptors was stably transfected with the promiscuous G-protein, Galpha15 to change the signaling pathway to the mGlu2 receptor to one that could be easily measured through release of intracellular calcium. Thus, intracellular calcium levels were monitored before and after the addition of drugs on a Fluorometric Imaging Plate Reader (i.e. FLIPR, Molecular Devices). The following buffer was used throughout as an assay buffer: 10 mM KCl, 138 mM NaCl, 5 mM Ca Cl2, 1 mM MgCl2, 4 mM NaH2PO4, 10 mM Glucose, 10 mM HEPES, pH 7.4. Cells that had been plated 48 h prior at a density of 30-40,000 cells per well in a 96-well plate were loaded with a calcium-sensitive dye for 90 min at 25° C. Fluo-3 (2 mM in DMSO, Molecular Probes) were mixed with a equal volume of 10% pluronic acid in DMSO, and diluted to 8 μM into the buffer described above containing 10% fetal bovine serum to make the loading buffer. Following loading of the cells, the loading buffer was removed and replaced with assay buffer prior to drug addition and monitoring on the FLIPR.

mGlu2 receptor [3] = target: T1, mGlu2 receptor; assay: [3H]-2S-2-Amino-2-(1S,2S-2-carboxycyclopropan-1-yl)-3-(xanth-9-yl) propionic acid receptor binding (displacement), membranes of mGlu2 receptor expressing RGT cells; parameters: expressed in transfected cells; host or cells: RGT cells (co-transfected with the rat glutamate/aspartate transporter GLAST); washed membranes; conditions: displacement of 1 nM [3H]-2S-2-amino-2-(1S,2S-2-carboxycyclopropan-1-yl)-3-(xanth-9-yl)propionic acid; homogenates of mGlu2 receptor expressing cell line
Method: Membranes from mGlu2 receptor expressing RGT cells were prepared by harvesting adherent cells from confluent T-150 flasks with a cell scraper. Cells and media were then placed in 50 ml conical tubes and centrifuged at 4° C. at 1000 g for 5 minutes. The supernatant was removed and the pellet was frozen at −10° C. until use. Washed cell membranes were prepared by adding 20 ml of 10 mM potassium phosphate buffer pH 7.6 @ 5° C.+100 mM potassium bromide and homogenizing with an Ultra-Turrax tissuemizer for 15 seconds at 90% output. The homogenate was centrifuged at 48,000×g for 10 minutes at 5° C. This last step was repeated two times, and the final pellet was resuspended in 10 ml of the same buffer and reserved on ice until initiating the binding assay.
The incubation was initiated by the addition of the membrane suspension, (about 15 μg membrane protein), and allowed to continue on ice for 30 min. Incubation was terminated by rapid filtration with a Brandel cell harvester through glass fiber Whatman GF/B filters pre-wet with the same potassium phosphate buffer assay buffer (at 4° C.). The filters were washed five times with 1 ml of buffer. Filter sections were transferred to minivials and 5 ml of Fisher Scientific ScintiSafe liquid scintillation cocktail was added to each vial. Vials were allowed to set for several hours prior to counting on a Beckman LS6000 liquid scintillation counter.

T1 sequence (Q14416 19-872): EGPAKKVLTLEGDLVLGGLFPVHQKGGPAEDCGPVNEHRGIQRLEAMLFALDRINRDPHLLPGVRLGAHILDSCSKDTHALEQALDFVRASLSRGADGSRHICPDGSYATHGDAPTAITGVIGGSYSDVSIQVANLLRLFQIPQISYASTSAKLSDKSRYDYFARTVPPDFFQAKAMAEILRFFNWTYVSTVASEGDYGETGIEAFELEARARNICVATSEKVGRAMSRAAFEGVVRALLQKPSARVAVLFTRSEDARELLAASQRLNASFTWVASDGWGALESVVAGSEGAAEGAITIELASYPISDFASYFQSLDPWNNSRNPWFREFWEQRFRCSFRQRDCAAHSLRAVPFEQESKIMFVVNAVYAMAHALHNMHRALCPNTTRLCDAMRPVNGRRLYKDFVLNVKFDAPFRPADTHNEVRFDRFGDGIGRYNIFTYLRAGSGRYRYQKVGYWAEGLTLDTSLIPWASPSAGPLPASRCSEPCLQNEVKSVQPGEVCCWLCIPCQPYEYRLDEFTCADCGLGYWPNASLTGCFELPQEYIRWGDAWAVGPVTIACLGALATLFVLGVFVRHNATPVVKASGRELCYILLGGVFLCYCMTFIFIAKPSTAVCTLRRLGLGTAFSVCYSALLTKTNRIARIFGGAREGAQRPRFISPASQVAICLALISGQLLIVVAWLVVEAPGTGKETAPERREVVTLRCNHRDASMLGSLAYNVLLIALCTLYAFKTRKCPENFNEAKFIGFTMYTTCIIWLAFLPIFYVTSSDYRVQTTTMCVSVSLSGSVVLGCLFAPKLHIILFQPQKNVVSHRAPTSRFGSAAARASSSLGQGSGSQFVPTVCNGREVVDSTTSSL

- Emax (mGlu2 receptor [2]; 8 nM Glutamate + 1 μM compound): 2.8 ± 1.9%
- Emax (mGlu2 receptor [2]; 24 nM Glutamate + 1 μM compound): 0.1 ± 0.8%
- Emax (mGlu2 receptor [2]; 80 nM Glutamate + 1 μM compound): 0.3 ± 1.1%
- Emax (mGlu2 receptor [2]; 240 nM Glutamate + 1 μM compound): 17.4 ± 2.8%
- Emax (mGlu2 receptor [2]; 800 nM Glutamate + 1 μM compound): 62.9 ± 0.1%
- Emax at 1 µM (mGlu2 receptor [2]; 1 μM compound, Buffer (no agonist), glutamate series 24 μM to 8 nM): 1.6 ± 1%
- Emax (mGlu2 receptor [2]; 2.4 μM Glutamate + 1 μM compound): 92.5 ± 4.4%
- Emax (mGlu2 receptor [2]; 8 μM Glutamate + 1 μM compound): 98.4 ± 6.4%
- Emax (mGlu2 receptor [2]; 24 μM Glutamate + 1 μM compound): 95.4 ± 2.4%
- Ki (mGlu2 receptor [3]): > 100 µM
SMILES: COc1ccccc1Oc1ccc(N(Cc2cccnc2)S(=O)(=O)CC(F)(F)F)cc1 [Example 16, N-(4-(2-Methoxyphenoxy)phenyl)-N-(2,2,2-trifluoroethylsulfonyl)pyrid-3-ylmethylamine]
- Extrav. Ratio ± s.e.m. ([1]; 10 pg/kg i.v.): 1.87 ± 0.07
- Extrav. Ratio ± s.e.m. ([1]; 100 pg/kg i.v.): 1.37 ± 0.07
- Extrav. Ratio ± s.e.m. ([1]; 1 ng/kg i.v.): 1.04 ± 0.05
- Extrav. Ratio ± s.e.m. ([1]; 100 ng/kg i.v.): 0.99 ± 0.004
- Difference in Startle Amplitude (Vmax) + S.E. (Male Sprague-Dawley rats; Exp. 1, 0.03 mg/kg i.p. 30 minutes prior to testing, light+noise minus noise-alone): 108 + 41
- Difference in Startle Amplitude (Vmax) + S.E. (Male Sprague-Dawley rats; Exp. 1, 0.3 mg/kg i.p. 30 minutes prior to testing): 154 + 38
- Difference in Startle Amplitude (Vmax) + S.E. (Male Sprague-Dawley rats; Exp. 1, 3.0 mg/kg i.p. 30 minutes prior to testing): 21 + 24*
- Difference in Startle Amplitude (Vmax) + S.E. (Male Sprague-Dawley rats; Exp. 2, 1.0 mg/kg i.p. 30 minutes prior to testing): 120 + 87*
- Difference in Startle Amplitude (Vmax) + S.E. (Male Sprague-Dawley rats; Exp. 2, 3.0 mg/kg i.p. 30 minutes prior to testing): 148 + 86*
- Difference in Startle Amplitude (Vmax) + S.E. (Male Sprague-Dawley rats; Exp. 2, 10.0 mg/kg i.p. 30 minutes prior to testing): 105 + 91*
